This is an account of results in paper PMC9140920 (International Journal of Molecular Sciences, 2022).

The term IC50 denotes the concentration that gives 50% inhibition. The term IC20 denotes the point of the concentration-response curve where the effect stands at 20%. Broadly, the IC80 is the concentration at which the effect reaches the 80% level.

Where two headings read alike, the source gives them in different places.

For series [1], the system named is TM4 mouse Sertoli cells. The experiment in a line: Cell growth and viability (MTT), dose-response of the drugs alone. In kind it is cell-based. Particulars: TM4 cells; for IC50: read-out: IC50 ± SE; for IC20: read-out: IC20 ± SE; for IC80: read-out: IC80 ± SE. The protocol:
Cells were maintained in standard conditions for 24 h before treatments. […] All azoles were dissolved in DMSO. In an effort to avoid a possible experimental artifact with vehicles, experiments were performed including control groups in which the effect of the drug vehicle alone was tested (vehicle control, vCTR). […] For experiments with N-acetylcysteine (NAC), 24 h after seeding cells were pre-treated for 1 h with the ROS inhibitor (1 mM) and then maintained in co-treatment with azoles for 48 h.
TM4 cells were seeded at a density of 1 × 10^4/cm^2, and cultures incubated at standard conditions in the presence or the absence of azoles to reach final concentrations ranging from 0.078 µM up to 320 µM in culture medium. Cell growth and viability were assessed at 24 and 48 h by Trypan-blue exclusion assay and MTT (3-(4,5-dimethylthiazol-2-yl)-2,5-diphenyl-2H-tetrazolium-bromide) colorimetric method (Sigma-Aldrich, St. Louis, MO, USA), quantifying the metabolic efficiency of living cells.
The Interaction Index (II) was calculated, as previously described, by modifying the Chou and Talalay equation [78]. Specifically, Chou and Talalay’s median-effect method estimates the IC50 and the sigmodicity coefficient m values using linear regression of the linearised dose-response curve.
For a two-drug assay, II is the summation of the ratios of the doses (Dn) of the drugs in combination, and the concentrations of the two drugs alone (IDx,n), to obtain a fraction x of cells affected by drug combinations (Fa). IDx,n is estimated by the following equation:(1) IDx,n=IC50(Fa/1−Fa)^1/mn

Series [2] has as its system ROS production in TM4 cells. Description: Intracellular ROS detection (DCFH-DA fluorescence). It is filed as cell-based, mouse. The conditions noted are these: 3 h of incubation, vs vCTR. The protocol: The intracellular ROS production was detected by using 2′,7′-dichlorofluorescein diacetate (DCFH-DA) (Molecular Probes, Eugene, OR, USA), as previously reported. In brief, after 30 min and 3 h of treatments, samples were incubated with 1 µM DCFH-DA at 37 °C for 30 min. Subsequently, cells were collected and twice washed in ice-cold PBS; samples were then analysed using flow cytometry to detect the presence of intracellular ROS at the wavelengths of 502 and 524 nm, for the excitation and the emission, respectively; the fluorescence intensity was detected with a Perkin Elmer LS-50B spectrofluorometer. Cells treated with 500 µM tert-butyl hydroperoxide (t-BHP) for 1.5 h were used as a positive control for ROS generation.

The subject of series [3] is ΔΨm in TM4 cells. Description: Mitochondrial membrane potential (ΔΨm) by JC-1 flow cytometry. In kind it is cell-based, mouse. The conditions noted are these: 3 h of incubation, JC-1, vs vCTR. The protocol:
Variations of the ΔΨm in samples exposed to azoles for 3 h were assessed using the lipophilic cation dye JC-1, as previously reported. Cells (1 × 10^6 per sample) were stained for 30 min at 37 °C in a humidified atmosphere, with 3 µM JC-1 (Molecular Probes, Eugene, OR, USA) and collected; after washing in PBS, cells were analysed using flow cytometry. To assure a positive control for the abatement of the ΔΨm, the cells were cultured in the presence of […] rotenone (Sigma-Aldrich, St. Louis, MO, USA) for 1 h at standard conditions, and then incubated with the potentiometric dye as described above. Experiments were performed in triplicate and analysed by an FACS Calibur instrument (BD Instruments Inc., San José, CA, USA). The fluorescent signals from JC-1 monomers or aggregates were detected through the FL-1 (525 ± 5 nm) and FL-2 bandpass filters (575 ± 5 nm), respectively; the forward and side scatter channels gated a minimum of 1 × 10^4 cells on the major population of normal-sized cells. ΔΨm data assessment was performed by the Cell Quest software (BD Instruments Inc., San José, CA, USA).
In general terms: Flow cytometry measures light scatter and fluorescence of single cells or particles in a stream.

The conditions of series [4]: cited from earlier work.
Series [5] has as its system C-PARP1 in TM4 cells. The experiment in a line: Western blot of cleaved PARP1 (C-PARP1). It is filed as cell-based, mouse. The conditions noted are these: 48 h exposure, ratio of cleaved PARP1 to total PARP1, vs vCTR. The protocol: The protein extracts were run on a 10% SDS-PAGE and transferred onto PVDF filters and maintained at room temperature (RT) for 2 h in 5% non-fat dry milk diluted in TBST (containing 0.1% Tween-20). After washing, membranes were incubated O/N at 4 °C with the primary antibody anti-PARP1 (Cell Signaling, Danvers, MA, USA) diluted to 1:1000 in 1% non-fat dry milk in TBST. After washing, PVDF filters were incubated for 1 h at RT with the anti-rabbit (1:5000) HRP-conjugated secondary antibody (Immunological Sciences, by Società Italiana Chimici, Rome, Italy). ECL West Pico Plus chemiluminescent substrate was used to detect signals using a ChemiDoc XRSplus imaging system (Bio-Rad Laboratories, Hercules, CA, USA). The optical densities of blot bands were quantified using ImageJ software (US National Institutes of Health, Bethesda, MD, USA); the graph values represent the ratios of cleaved PARP1 to total PARP1. ß-actin was used as loading control.
For orientation: Immunoblotting shows a protein as a band on a membrane.

Series [6] relates to TM4 cells. Description: Annexin V-FITC / propidium iodide assay of apoptosis and necrosis. The conditions noted are these: for apoptosis induction / cell death: 48 h, annexin V/PI, vs vCTR. It is filed as cell-based, mouse. The protocol:
Cells were maintained in standard conditions for 24 h before treatments. […] All azoles were dissolved in DMSO. In an effort to avoid a possible experimental artifact with vehicles, experiments were performed including control groups in which the effect of the drug vehicle alone was tested (vehicle control, vCTR). In these experimental conditions, we excluded any negative effects of DMSO that is biocompatible with no biological effect per se. For experiments with N-acetylcysteine (NAC), 24 h after seeding cells were pre-treated for 1 h with the ROS inhibitor (1 mM) and then maintained in co-treatment with azoles for 48 h.
Treated and control cells (vCTR) (1 × 10^6) were collected; after washing in ice-cold PBS, samples were resuspended in 1 mL of binding buffer (10 mM HEPES, 140 mM NaCl, and 2.5 mM CaCl2, at pH 7.4) containing 10 µg/mL Annexin V-FITC and 1 µg/mL PI. After staining (1 h incubation at room temperature), cells were then washed and subsequently analysed using an FACS Calibur instrument (BD Instruments Inc., San José, CA, USA). Cells treated with 25 µM Etoposide (Eto) for 24 h were used as a positive control for apoptosis induction. Data from 10,000 events per sample were collected and analysed using an FACS Calibur instrument (BD Instruments Inc., San José, CA, USA ) equipped with cell cycle analysis software (Modfit LT for Mac V3.0) in order to calculate the percentages of apoptotic and necrotic cells.

For series [7] the following is noted: cited from earlier work. This is another data set of the same source.
[8] abbreviates: 48 h of exposure, drug alone, 50% fraction of cells affected (Fa), non-linear fitting.
Setting [9] is: Mus musculus, 48 h of exposure, drug alone, 20% fraction of cells affected (Fa), non-linear fitting.
The mark [10] stands for this setting: Mus musculus, 48 h of exposure, drug alone, 80% fraction of cells affected (Fa), non-linear fitting.

With `OC(Cn1cncn1)(Cn1cncn1)c1ccc(F)cc1F` [FCZ, fluconazole], the “IC20 ± SE” value in series [1] (48 h of exposure, drug alone, 20% fraction of cells affected (Fa), non-linear fitting) is “Not detectable”. Moreover, in series [1] (setting [8]), the “IC50 ± SE” value is “Not detectable”. Moreover, in series [1] (48 h of exposure, drug alone, 80% fraction of cells affected (Fa), non-linear fitting), the “IC80 ± SE” value is given as “Not detectable”. The cytotoxic effects entry in series [1] (up to 320 µM, individually or in combination) is “no cytotoxic effects”.
Regarding `CC(=O)N1CCN(c2ccc(OCC3COC(Cn4ccnc4)(c4ccc(Cl)cc4Cl)O3)cc2)CC1` (stereo not drawn) [KCZ, ketoconazole], the “increase in ROS production” value in series [2] was ~ 1.7 fold. Also, the “mean intensity of red-orange fluorescence (MFI) of ΔΨm high population” value in series [3] is “increases in MFI”. The plasma concentration in series [4] (human subjects, after treatment with 400 mg/day therapy) is 24.89 µM. In addition, the “systemic absorption after topical administration” value in series [4] (human, topical KCZ) was “little systemic absorption”. The IC50 in series [1] (Mus musculus, TM4, 48 h, 48 h of exposure, drug alone, 50% fraction of cells affected (Fa), non-linear fitting) is about 73 µM; in series [1] (setting [8]), 73.2 ± 9.5 µM. In addition, in series [1] (setting [9]), the concentration for an effect of 20% (IC20) is 18.3 ± 2.4 µM. Moreover, in series [1] (setting [10]), the IC80 came to 293 ± 38.1 µM. In series [5], the C-PARP1 protein levels result was “significantly increased”. The “apoptosis induction / cell death” value in series [6] was “a level of apoptosis-induction occurred”.
With `Clc1ccc(COC(Cn2ccnc2)c2ccc(Cl)cc2Cl)c(Cl)c1` (stereo not drawn) [MCZ, miconazole], in series [2], the “increase in ROS production” value is ~ 1.4 fold. Also, the “log Kow (log octanol-water partition coefficient)” value in series [7] is reported as 6.35. For the same compound, the IC20 in series [1] (setting [9]) was 8.6 ± 0.6 µM. Also, the IC80 in series [1] (setting [10]) was determined as 138 ± 9.8 µM. Besides, the C-PARP1 protein levels entry in series [5] is on record as “significantly increased”. The “apoptosis induction / cell death” value in series [6] was “a level of apoptosis-induction occurred”.
In the case of `CC(=O)N[C@@H](CS)C(=O)O` [NAC, N-acetylcysteine], the “effect on KCZ- and PCZ/KCZ-induced apoptosis and necrosis” value in series [6] (co-incubation for 48 h with 1 mM NAC) is given as “significantly reduced”.
